The text below walks through data of patent US8853251B2, “Ester pro-drugs of [3-(1-(1H-imidazol-4-YL)ethyl)-2-methylphenyl] methanol for treating retinal diseases” (Allergan, Inc., priority 2010, dated 2014).

One experiment has as its system normal DB rabbits. Nature of the experiment: Visual Enhancement Model (sweep visual evoked potential acuity). It is filed as in vivo, rabbit. To be noted: pigmented (Dutch-Belted) rabbits, intravenous route, 10-30 minutes post-dose, conscious animals, bilateral recordings. The protocol:
Spatial sweep visual evoked potential (sVEP) acuity is assessed with PowerDiva software version 1.8. Recordings were made bilaterally in conscious animals.

Experiment [1] relates to blue light model of retinal degeneration in rats. Nature of the experiment: The Blue Light Model of retinal degeneration. As to conditions: male Sprague Dawley rats, subcutaneous infusion pumps 1 mg/kg/day starting two days before blue light (4 hours, 6100-6500 lux), OCT at 7 days post exposure. It is filed as in vivo, rat. The protocol:
Pro-drug iso-Butyric acid 3-[(S)-1-(1H-imidazol-4-yl)-ethyl]-2-methyl-benzyl ester is evaluated in the blue light model of retinal degeneration in rats. The drugs is administered continuously with subcutaneous infusion pumps at a dose of 1 mg/kg/day starting two days before blue light exposure. Twenty 4-month old male Sprague Dawley rats (body weight 470-550 g) were used in this study. The animals were exposed to room light on a 12 hour light/12 hour dark cycle before the experiment. All animals were dark adapted overnight (16-20 hours) before blue light. Under the intensity of 6100-6500 lux, rats were exposed to blue light for 4 hours. After the blue light, rats were placed in the dark for another 3 days before returning to normal 12 hour light/12 hour dark. Ocular Coherence Tomography (OCT) measurement was performed at 7 days post blue light exposure.

On to `Cc1c(COC(=O)C(C)C)cccc1[C@H](C)c1c[nH]cn1` [Compound 1, iso-Butyric acid 3-[(S)-1-(1H-imidazol-4-yl)-ethyl]-2-methyl-benzyl ester], for which the “Spatial sweep visual evoked potential (sVEP) acuity” value in the experiment on normal DB rabbits is “enhances visual acuity”. In experiment [1], the “retinal thickness measured by OCT after blue light exposure” value is reported as “significantly reduced the damage caused by blue light”. Consider `Brc1c(NC2=NCCN2)ccc2nccnc12` [Brimonidine, reference compound], for which, in experiment [1], the “retinal thickness measured by OCT after blue light exposure” value was “did not prevent the change in retinal thickness”.
